From patent US10952436B2, “Microbiocidal quinoline (thio)carboxamide derivatives” (SYNGENTA PARTICIPATIONS AG, priority 2017, dated 2021)

Columns and labels:
[1] = system: Glomerella lagenarium (Colletotrichum lagenarium); assay: Glomerella lagenarium (Colletotrichum lagenarium)/Liquid Culture (Anthracnose); assay type: cell-based; details: Colletotrichum orbiculare; 200 ppm; liquid culture, compared to untreated control, 3-4 days after application; read-out: control of Glomerella lagenarium
[2] = system: Fusarium culmorum; assay: microbe, parasite or virus in culture; assay type: cell-based; details: read-out: control of Fusarium culmorum
[3] = system: Magnaporthe grisea (Pyricularia oryzae); assay: microbe, parasite or virus in culture; assay type: cell-based; details: read-out: control of Magnaporthe grisea
[4] = system: Botryotinia fuckeliana (Botrytis cinerea); assay: Botryotinia fuckeliana (Botrytis cinerea)/Liquid Culture (Gray Mould); assay type: cell-based; details: 200 ppm, liquid culture, compared to untreated control, 3-4 days after application, read-out: control of Botryotinia fuckeliana
[5] = system: Monographella nivalis (Microdochium nivale); assay: Monographella nivalis (Microdochium nivale)/Liquid Culture (Foot Rot Cereals); assay type: cell-based; details: 200 ppm, liquid culture, compared to untreated control, 4-5 days after application, read-out: control of Monographella nivalis
[6] = system: Fusarium culmorum; assay: whole plant or invertebrate; assay type: in vivo; details: in Triticum aestivum, read-out: control of Fusarium culmorum

In the case of `Cc1nc2c(F)cccc2cc1NC(=O)C(Cc1ccccc1)CC1(C)CC1` (stereo not drawn), the melting point is reported as 162 to 163 °C.

Molecule `Cc1c(NC(=O)C(Cc2ccccc2)CC2(C)CC2)cnc2c(F)cccc12` (stereo not drawn) has a melting point of 144 to 146 °C.

Work on `CC1(CC(Cc2ccccc2)C(=O)Nc2cnc3c(F)cccc3c2)CC1` (stereo not drawn) yielded a melting point of 135 to 136 °C.

For `C[C@@](Cc1ccccc1)(CC(F)(F)F)C(=O)Nc1cnc2c(F)cccc2c1` (single isomer, unassigned) [Compound F-24], the inhibition of growth at 200 ppm [1] was ≥ 80%, the inhibition of growth at 200 ppm [2] was ≥ 80% and the inhibition of growth at 200 ppm [3] was ≥ 80%. The inhibition of growth at 200 ppm [4] was ≥ 80%, the inhibition of growth at 200 ppm [5] was ≥ 80% and the pest or weed control at 200 ppm [6] was ≥ 80%.

With `C#CCC(C)(Cc1ccccc1)C(=O)Nc1cnc2c(F)cccc2c1C` (stereo not drawn) [Compound E-3, 2-benzyl-N-(8-fluoro-4-methyl-3-quinolyl)-2-methyl-pent-4-ynamide] the inhibition of growth at 200 ppm [1] was ≥ 80%, the inhibition of growth at 200 ppm [2] was ≥ 80% and the inhibition of growth at 200 ppm [4] was ≥ 80%. The inhibition of growth at 200 ppm [5] was ≥ 80%.

With `C=C(Cl)CC(Cc1ccccc1)C(=O)Nc1cc2cccc(F)c2nc1C` (stereo not drawn) [Compound E-4, 2-benzyl-4-chloro-N-(8-fluoro-2-methyl-3-quinolyl)pent-4-enamide] the inhibition of growth at 200 ppm [1] was ≥ 80%, the melting point was 96 to 99 °C and the inhibition of growth at 200 ppm [2] was ≥ 80%. For the same molecule, the inhibition of growth at 200 ppm [4] was ≥ 80%.

For `CC(C)CC(C)(Cc1cccc(F)c1)C(=O)Nc1cnc2c(F)cccc2c1` (stereo not drawn) [Compound E-7, 2-[(3-fluorophenyl)methyl]-N-(8-fluoro-3-quinolyl)-2,4-dimethyl-pentanamide], the inhibition of growth at 200 ppm [1] was ≥ 80%, the inhibition of growth at 200 ppm [2] was ≥ 80% and the inhibition of growth at 200 ppm [3] was ≥ 80%. For the same molecule, the inhibition of growth at 200 ppm [4] was ≥ 80% and the inhibition of growth at 200 ppm [5] was ≥ 80%.

With `C=C(CC(C)(Cc1ccccc1)C(=O)Nc1cnc2c(F)cccc2c1)C(F)(F)F` (stereo not drawn) [Compound E-23, 2-benzyl-N-(8-fluoro-3-quinolyl)-2-methyl-4-(trifluoromethyl)pent-4-enamide] the inhibition of growth at 200 ppm [1] was ≥ 80%, the inhibition of growth at 200 ppm [2] was ≥ 80% and the inhibition of growth at 200 ppm [3] was ≥ 80%. For the same molecule, the inhibition of growth at 200 ppm [4] was ≥ 80% and the inhibition of growth at 200 ppm [5] was ≥ 80%.

For `C=C(C(Cc1ccccc1)C(=O)Nc1cnc2c(F)cccc2c1)C(F)(F)F` (stereo not drawn) [Compound E-24, 2-benzyl-N-(8-fluoro-3-quinolyl)-3-(trifluoromethyl)but-3-enamide], the inhibition of growth at 200 ppm [1] was ≥ 80%, the inhibition of growth at 200 ppm [2] was ≥ 80% and the inhibition of growth at 200 ppm [3] was ≥ 80%. For the same molecule, the inhibition of growth at 200 ppm [4] was ≥ 80% and the inhibition of growth at 200 ppm [5] was ≥ 80%.

For `C/C=C(\C)CC(C)(Cc1ccccc1)C(=O)Nc1cnc2c(F)cccc2c1` (stereo not drawn) [Compound E-32, (E)-2-benzyl-N-(8-fluoro-3-quinolyl)-2,4-dimethyl-hex-4-enamide], the inhibition of growth at 200 ppm [1] was ≥ 80%, the inhibition of growth at 200 ppm [2] was ≥ 80% and the inhibition of growth at 200 ppm [3] was ≥ 80%. The inhibition of growth at 200 ppm [4] was ≥ 80%, the inhibition of growth at 200 ppm [5] was ≥ 80% and the pest or weed control at 200 ppm [6] was ≥ 80%.

With `CC(CCC(F)F)(Cc1ccccc1)C(=O)Nc1cnc2c(F)cccc2c1` (stereo not drawn) [Compound E-34, 2-benzyl-5,5-difluoro-N-(8-fluoro-3-quinolyl)-2-methyl-pentanamide] the inhibition of growth at 200 ppm [1] was ≥ 80%, the inhibition of growth at 200 ppm [2] was ≥ 80% and the inhibition of growth at 200 ppm [3] was ≥ 80%. For the same molecule, the inhibition of growth at 200 ppm [4] was ≥ 80%.

With `CC(C)CC(Cc1ccccc1)C(=O)Nc1cnc2c(F)cccc2c1` (stereo not drawn) [Compound E-35, 2-benzyl-N-(8-fluoro-3-quinolyl)-4-methyl-pentanamide] the inhibition of growth at 200 ppm [1] was ≥ 80%, the inhibition of growth at 200 ppm [2] was ≥ 80% and the inhibition of growth at 200 ppm [3] was ≥ 80%. For the same molecule, the inhibition of growth at 200 ppm [4] was ≥ 80% and the pest or weed control at 200 ppm [6] was ≥ 80%.

For `CCC(C)CC(C)(Cc1ccccc1)C(=O)Nc1cnc2c(F)cccc2c1` (stereo not drawn) [Compound E-36, 2-benzyl-N-(8-fluoro-3-quinolyl)-2,4-dimethyl-hexanamide], the inhibition of growth at 200 ppm [1] was ≥ 80%, the inhibition of growth at 200 ppm [2] was ≥ 80% and the inhibition of growth at 200 ppm [3] was ≥ 80%. For the same molecule, the inhibition of growth at 200 ppm [4] was ≥ 80% and the inhibition of growth at 200 ppm [5] was ≥ 80%.

With `Cc1nc2c(F)cccc2cc1NC(=O)C(C)(Cc1ccccc1)OC(C)C` (stereo not drawn) [Compound E-39, N-(8-fluoro-2-methyl-3-quinolyl)-2-isopropoxy-2-methyl-3-phenyl-propanamide] the inhibition of growth at 200 ppm [1] was ≥ 80%, the inhibition of growth at 200 ppm [2] was ≥ 80% and the inhibition of growth at 200 ppm [3] was ≥ 80%. The inhibition of growth at 200 ppm [4] was ≥ 80%, the inhibition of growth at 200 ppm [5] was ≥ 80% and the pest or weed control at 200 ppm [6] was ≥ 80%.

With `CC(C)OC(C)(Cc1ccccc1)C(=O)Nc1cnc2c(F)cccc2c1` (stereo not drawn) [Compound E-40, N-(8-fluoro-3-quinolyl)-2-isopropoxy-2-methyl-3-phenyl-propanamide] the inhibition of growth at 200 ppm [1] was ≥ 80%, the inhibition of growth at 200 ppm [2] was ≥ 80% and the inhibition of growth at 200 ppm [3] was ≥ 80%. For the same molecule, the inhibition of growth at 200 ppm [4] was ≥ 80%, the inhibition of growth at 200 ppm [5] was ≥ 80% and the pest or weed control at 200 ppm [6] was ≥ 80%.

For `COC(C)(Cc1ccccc1)C(=O)Nc1cc2cccc(F)c2nc1C` (stereo not drawn) [Compound E-41, N-(8-fluoro-2-methyl-3-quinolyl)-2-methoxy-2-methyl-3-phenyl-propanamide], the inhibition of growth at 200 ppm [1] was ≥ 80%, the inhibition of growth at 200 ppm [2] was ≥ 80% and the inhibition of growth at 200 ppm [3] was ≥ 80%. The inhibition of growth at 200 ppm [4] was ≥ 80%, the inhibition of growth at 200 ppm [5] was ≥ 80% and the pest or weed control at 200 ppm [6] was ≥ 80%.

For `CC(Cc1ccccc1)(CC(F)F)C(=O)Nc1cnc2c(F)cccc2c1` (stereo not drawn) [Compound E-55, 2-benzyl-4,4-difluoro-N-(8-fluoro-3-quinolyl)-2-methyl-butanamide], the inhibition of growth at 200 ppm [1] was ≥ 80%, the inhibition of growth at 200 ppm [2] was ≥ 80% and the inhibition of growth at 200 ppm [3] was ≥ 80%. The inhibition of growth at 200 ppm [4] was ≥ 80%, the inhibition of growth at 200 ppm [5] was ≥ 80% and the pest or weed control at 200 ppm [6] was ≥ 80%.

In the case of `CC(C=C(F)F)(Cc1ccccc1)C(=O)Nc1cnc2c(F)cccc2c1` (stereo not drawn) [Compound E-57, 2-benzyl-4,4-difluoro-N-(8-fluoro-3-quinolyl)-2-methyl-but-3-enamide], the inhibition of growth at 200 ppm [1] is reported as ≥ 80%, the inhibition of growth at 200 ppm [2] is reported as ≥ 80% and the inhibition of growth at 200 ppm [3] is reported as ≥ 80%. The inhibition of growth at 200 ppm [4] was ≥ 80%, the inhibition of growth at 200 ppm [5] was ≥ 80% and the pest or weed control at 200 ppm [6] was ≥ 80%.

In the case of `CON(C(=O)C(C)(Cc1ccccc1)CC(C)C)c1cnc2c(F)cccc2c1` (stereo not drawn) [Compound E-61, 2-benzyl-N-(8-fluoro-3-quinolyl)-N-methoxy-2,4-dimethyl-pentanamide], the inhibition of growth at 200 ppm [1] is reported as ≥ 80%, the inhibition of growth at 200 ppm [2] is reported as ≥ 80% and the inhibition of growth at 200 ppm [3] is reported as ≥ 80%. The inhibition of growth at 200 ppm [4] was ≥ 80% and the inhibition of growth at 200 ppm [5] was ≥ 80%.

For `C=C(C)CC(C)(Cc1ccccc1)C(=O)Nc1cnc2ccc(OC)cc2c1` (stereo not drawn) [Compound E-62, 2-benzyl-N-(6-methoxy-3-quinolyl)-2,4-dimethyl-pent-4-enamide], the inhibition of growth at 200 ppm [5] was ≥ 80%.

With `C=C(C)CC(C)(Cc1ccccc1)C(=O)Nc1cnc2ccccc2c1` (stereo not drawn) [Compound E-64, 2-benzyl-2,4-dimethyl-N-(3-quinolyl)pent-4-enamide] the inhibition of growth at 200 ppm [1] was ≥ 80%, the inhibition of growth at 200 ppm [2] was ≥ 80% and the inhibition of growth at 200 ppm [3] was ≥ 80%. The inhibition of growth at 200 ppm [4] was ≥ 80%, the inhibition of growth at 200 ppm [5] was ≥ 80% and the pest or weed control at 200 ppm [6] was ≥ 80%.

With `O=C(Nc1cnc2ccccc2c1)C(Cc1ccccc1)CC(F)(F)F` (stereo not drawn) [Compound E-79, 2-benzyl-4,4,4-trifluoro-N-(3-quinolyl)butanamide] the inhibition of growth at 200 ppm [1] was ≥ 80%, the inhibition of growth at 200 ppm [2] was ≥ 80% and the inhibition of growth at 200 ppm [3] was ≥ 80%. For the same molecule, the inhibition of growth at 200 ppm [4] was ≥ 80%.

In the case of `Cc1nc2c(F)cccc2cc1NC(=O)C(C)(Cc1ccccc1)CC(C)C` (stereo not drawn) [Compound E-86, 2-benzyl-N-(8-fluoro-2-methyl-3-quinolyl)-2,4-dimethyl-pentanamide], the inhibition of growth at 200 ppm [1] is reported as ≥ 80%, the inhibition of growth at 200 ppm [2] is reported as ≥ 80% and the inhibition of growth at 200 ppm [4] is reported as ≥ 80%. The inhibition of growth at 200 ppm [5] was ≥ 80% and the pest or weed control at 200 ppm [6] was ≥ 80%.

For `C#CCC(Cc1ccccc1)C(=O)Nc1cnc2c(F)cccc2c1C` (stereo not drawn) [Compound E-95], the inhibition of growth at 200 ppm [1] was ≥ 80%, the inhibition of growth at 200 ppm [2] was ≥ 80% and the inhibition of growth at 200 ppm [4] was ≥ 80%. The inhibition of growth at 200 ppm [5] was ≥ 80%.

For `C[C@@](Cc1ccccc1)(CC(F)(F)F)C(=O)Nc1cnc2c(F)c(F)ccc2c1` [Compound F-16, (2R)-2-benzyl-N-(7,8-difluoro-3-quinolyl)-4,4,4-trifluoro-2-methyl-butanamide], the inhibition of growth at 200 ppm [1] was ≥ 80%, the inhibition of growth at 200 ppm [2] was ≥ 80% and the inhibition of growth at 200 ppm [3] was ≥ 80%. For the same molecule, the inhibition of growth at 200 ppm [4] was ≥ 80% and the inhibition of growth at 200 ppm [5] was ≥ 80%.

With `Cc1cccc2cc(NC(=O)[C@@](C)(Cc3ccccc3)CC(F)(F)F)cnc12` [Compound F-17, (2S)-2-benzyl-4,4,4-trifluoro-2-methyl-N-(8-methyl-3-quinolyl)butanamide] the inhibition of growth at 200 ppm [1] was ≥ 80%, the inhibition of growth at 200 ppm [2] was ≥ 80% and the inhibition of growth at 200 ppm [3] was ≥ 80%. The inhibition of growth at 200 ppm [4] was ≥ 80% and the inhibition of growth at 200 ppm [5] was ≥ 80%.

With `Cc1cccc2cc(NC(=O)[C@](C)(Cc3ccccc3)CC(F)(F)F)cnc12` [Compound F-18, (2R)-2-benzyl-4,4,4-trifluoro-2-methyl-N-(8-methyl-3-quinolyl)butanamide] the inhibition of growth at 200 ppm [1] was ≥ 80%, the inhibition of growth at 200 ppm [2] was ≥ 80% and the inhibition of growth at 200 ppm [3] was ≥ 80%. The inhibition of growth at 200 ppm [4] was ≥ 80% and the inhibition of growth at 200 ppm [5] was ≥ 80%.

For `CC(C)C[C@](C)(Cc1ccccc1)C(=O)Nc1cnc2c(F)cccc2c1` [Compound F-19, (2R)-2-benzyl-N-(8-fluoro-3-quinolyl)-2,4-dimethyl-pentanamide], the inhibition of growth at 200 ppm [1] was ≥ 80%, the inhibition of growth at 200 ppm [2] was ≥ 80% and the inhibition of growth at 200 ppm [4] was ≥ 80%. For the same molecule, the pest or weed control at 200 ppm [6] was ≥ 80%.
